According to ChEMBL document CHEMBL1201861, “Genomics of Drug Sensitity in Cancer screening data, Wellcome Trust Sanger Institute”:

What was measured:
Experiment in all cases: cells
Conditions in all cases: Homo sapiens
[1] = system: Ca-Ski; assay type: functional, cell-based;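 also: cell viability assay measuring inhibition of Ca-Ski cell growth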
Description: SANGER: Inhibition of human Ca-Ski cell growth in a cell viability assay.

[2] = system: Ca9-22; assay type: functional, cell-based;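 also: growth inhibition of Ca9-22 cells, read out with a cell viability assay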
Description: SANGER: Inhibition of human Ca9-22 cell growth in a cell viability assay.

[3] = system: EFO-21; assay type: functional, cell-based;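 also: growth inhibition of EFO-21 cells measured with a viability assay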
Description: SANGER: Inhibition of human EFO-21 cell growth in a cell viability assay.

[4] = system: GAMG; assay type: functional, cell-based;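 also: cell growth inhibition measured by a viability assay in the GAMG human cell line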
Description: SANGER: Inhibition of human GAMG cell growth in a cell viability assay.

[5] = system: GCT; assay type: functional, cell-based;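 also: GCT cell line proliferation inhibition, read out with a cell viability assay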
Description: SANGER: Inhibition of human GCT cell growth in a cell viability assay.

[6] = system: GMS-10; assay type: functional, cell-based;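 also: growth inhibition of GMS-10 cells, read out as cell viability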
Description: SANGER: Inhibition of human GMS-10 cell growth in a cell viability assay.

[7] = system: HCC1806; assay type: functional, cell-based;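 also: growth inhibition of the cancer cell line, determined with a cell viability assay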
Description: SANGER: Inhibition of human HCC1806 cell growth in a cell viability assay.

[8] = system: HCC1954; assay type: functional, cell-based;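 also: growth inhibition of human HCC1954 cells, read out with a cell viability assay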
Description: SANGER: Inhibition of human HCC1954 cell growth in a cell viability assay.

[9] = system: HGC-27; assay type: functional, cell-based;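 also: growth inhibition of human HGC-27 cells, read out in a cell viability assay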
Description: SANGER: Inhibition of human HGC-27 cell growth in a cell viability assay.

[10] = system: HT-29; assay type: functional, cell-based;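 also: growth inhibition of human HT-29 cells, read out by a cell viability assay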
Description: SANGER: Inhibition of human HT-29 cell growth in a cell viability assay.

[11] = system: HTC-C3; assay type: functional, cell-based;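 also: inhibition of cell growth, read out with a cell viability assay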
Description: SANGER: Inhibition of human HTC-C3 cell growth in a cell viability assay.

[12] = system: Huh-7; assay type: functional, cell-based;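 also: HuH-7 cell growth inhibition, read out with a cell viability assay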
Description: SANGER: Inhibition of human HuH-7 cell growth in a cell viability assay.

[13] = system: HuO-3N1; assay type: functional, cell-based;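 also: cell viability readout used to measure how strongly compounds suppress proliferation of human HuO-3N1 cells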
Description: SANGER: Inhibition of human HuO-3N1 cell growth in a cell viability assay.

[14] = system: HuP-T3; assay type: functional, cell-based;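 also: HuP-T3 cell growth inhibition, read out with a cell viability assay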
Description: SANGER: Inhibition of human HuP-T3 cell growth in a cell viability assay.

[15] = system: J82; assay type: functional, cell-based;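 also: growth inhibition of J82 cells, read out with a cell viability assay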
Description: SANGER: Inhibition of human J82 cell growth in a cell viability assay.

[16] = system: JEG-3; assay type: functional, cell-based;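 also: growth inhibition of human JEG-3 cells, read out with a cell viability assay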
Description: SANGER: Inhibition of human JEG-3 cell growth in a cell viability assay.

[17] = system: KYSE-410; assay type: functional, cell-based;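 also: growth inhibition of KYSE-410 cells, measured through a cell viability readout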
Description: SANGER: Inhibition of human KYSE-410 cell growth in a cell viability assay.

[18] = system: KYSE-450; assay type: functional, cell-based;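 also: cell growth inhibition measured by a viability assay in human KYSE-450 cells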
Description: SANGER: Inhibition of human KYSE-450 cell growth in a cell viability assay.

[19] = system: KYSE-510; assay type: functional, cell-based;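 also: cell viability readout used to measure how strongly growth of the cell line is suppressed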
Description: SANGER: Inhibition of human KYSE-510 cell growth in a cell viability assay.

[20] = system: LK-2; assay type: functional, cell-based;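 also: growth inhibition of LK-2 cells, read out with a viability assay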
Description: SANGER: Inhibition of human LK-2 cell growth in a cell viability assay.

[21] = system: MKN-1; assay type: functional, cell-based;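 also: growth inhibition of human MKN1 cells, read out by a cell viability measurement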
Description: SANGER: Inhibition of human MKN1 cell growth in a cell viability assay.

[22] = system: NB17; assay type: functional, cell-based;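 also: growth inhibition of NB17 cells, read out with a cell viability assay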
Description: SANGER: Inhibition of human NB17 cell growth in a cell viability assay.

[23] = system: NCI-H1792; assay type: functional, cell-based;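 also: growth inhibition of human NCI-H1792 cells, read out as cell viability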
Description: SANGER: Inhibition of human NCI-H1792 cell growth in a cell viability assay.

[24] = system: NCI-H2405; assay type: functional, cell-based;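 also: growth inhibition of the human cell line, read out with a cell viability assay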
Description: SANGER: Inhibition of human NCI-H2405 cell growth in a cell viability assay.

[25] = system: NCI-H292; assay type: functional, cell-based;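 also: growth inhibition of NCI-H292 cells, read out with a cell viability assay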
Description: SANGER: Inhibition of human NCI-H292 cell growth in a cell viability assay.

[26] = system: NCI-H727; assay type: functional, cell-based;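 also: growth inhibition of human NCI-H727 cells, read out with a cell viability assay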
Description: SANGER: Inhibition of human NCI-H727 cell growth in a cell viability assay.

[27] = system: NCI-N87; assay type: functional, cell-based;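 also: growth inhibition of human NCI-N87 cells, read out with a cell viability assay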
Description: SANGER: Inhibition of human NCI-N87 cell growth in a cell viability assay.

[28] = system: OE19; assay type: functional, cell-based;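 also: growth inhibition of OE19 cells, measured through a cell viability read-out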
Description: SANGER: Inhibition of human OE19 cell growth in a cell viability assay.

[29] = system: PA-1; assay type: functional, cell-based;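 also: IC50 for suppression of PA-1 cell proliferation, determined with a cell viability read-out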
Description: SANGER: Inhibition of human PA-1 cell growth in a cell viability assay.

[30] = system: RCM-1; assay type: functional, cell-based;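 also: growth inhibition of the RCM-1 line, determined with a cell viability readout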
Description: SANGER: Inhibition of human RCM-1 cell growth in a cell viability assay.

[31] = system: RD; assay type: functional, cell-based
Description: SANGER: Inhibition of human RD cell growth in a cell viability assay.

[32] = system: RPMI-7951; assay type: functional, cell-based
Description: SANGER: Inhibition of human RPMI-7951 cell growth in a cell viability assay.

[33] = system: SAS; assay type: functional, cell-based;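 also: growth inhibition of SAS cells, read out with a cell viability assay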
Description: SANGER: Inhibition of human SAS cell growth in a cell viability assay.

[34] = system: SCC-25; assay type: functional, cell-based;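 also: growth inhibition of SCC-25 cells, measured with a cell viability assay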
Description: SANGER: Inhibition of human SCC-25 cell growth in a cell viability assay.

[35] = system: SK-HEP1; assay type: functional, cell-based, SK-HEP-1;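 also: cell viability readout used to quantify reduction in proliferation of human SK-HEP-1 cells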
Description: SANGER: Inhibition of human SK-HEP-1 cell growth in a cell viability assay.

[36] = system: SK-MEL3; assay type: functional, cell-based, SK-MEL-3;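 also: growth inhibition of human SK-MEL-3 cells, read out with a cell viability assay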
Description: SANGER: Inhibition of human SK-MEL-3 cell growth in a cell viability assay.

[37] = system: SNU-449; assay type: functional, cell-based
Description: SANGER: Inhibition of human SNU-449 cell growth in a cell viability assay.

[38] = system: SW1417; assay type: functional, cell-based;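 also: growth inhibition of human SW1417 cells, read out with a cell viability assay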
Description: SANGER: Inhibition of human SW1417 cell growth in a cell viability assay.

[39] = system: SW1710; assay type: functional, cell-based;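 also: growth inhibition of SW1710 cells, determined with a cell viability assay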
Description: SANGER: Inhibition of human SW1710 cell growth in a cell viability assay.

[40] = system: ABC-1; assay type: functional, cell-based;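 also: growth inhibition of human ABC-1 cells, read out by a cell viability assay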
Description: SANGER: Inhibition of human ABC-1 cell growth in a cell viability assay.

[41] = system: BPH-1; assay type: functional, cell-based;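 also: cell viability assay measuring growth inhibition of human BPH-1 cells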
Description: SANGER: Inhibition of human BPH-1 cell growth in a cell viability assay.

[42] = system: C-33-A; assay type: functional, cell-based;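 also: cell viability assay measuring growth inhibition of C-33-A cells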
Description: SANGER: Inhibition of human C-33-A cell growth in a cell viability assay.

[43] = system: CAL-120; assay type: functional, cell-based;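 also: cell growth inhibition, read out as cell viability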
Description: SANGER: Inhibition of human CAL-120 cell growth in a cell viability assay.

[44] = system: CAL-39; assay type: functional, cell-based;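 also: cell viability assay measuring growth inhibition of CAL-39 cells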
Description: SANGER: Inhibition of human CAL-39 cell growth in a cell viability assay.

[45] = system: CAL-72; assay type: functional, cell-based;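 also: cell viability assay measuring inhibition of proliferation in the CAL-72 cell line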
Description: SANGER: Inhibition of human CAL-72 cell growth in a cell viability assay.

[46] = system: U2OS; assay type: functional, cell-based, U-2-OS;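 also: growth inhibition of human U-2-OS cells, determined with a cell viability assay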
Description: SANGER: Inhibition of human U-2-OS cell growth in a cell viability assay.

[47] = system: U-251; assay type: functional, cell-based;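 also: growth inhibition of human U-251 cells, read out through a cell viability assay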
Description: SANGER: Inhibition of human U251 cell growth in a cell viability assay.

[48] = system: UMUC3; assay type: functional, cell-based;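 also: growth inhibition of human UM-UC-3 cells, read out with a cell viability assay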
Description: SANGER: Inhibition of human UM-UC-3 cell growth in a cell viability assay.

[49] = system: YKG-1; assay type: functional, cell-based;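 also: cell growth inhibition, read out with a viability assay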
Description: SANGER: Inhibition of human YKG-1 cell growth in a cell viability assay.

[50] = system: COLO-678; assay type: functional, cell-based
Description: SANGER: Inhibition of human COLO-678 cell growth in a cell viability assay.

## Cn1cc(/C=C2\C(=O)Nc3cccnc32)c2ccccc21
[1]
  IC50: > 2 µM
[2]
  IC50: > 2 µM
[3]
  IC50: > 2 µM
[4]
  IC50: > 2 µM
[5]
  IC50: > 2 µM
[6]
  IC50: > 2 µM
[7]
  IC50: > 2 µM
[8]
  IC50: > 2 µM
[9]
  IC50: > 2 µM
[10]
  IC50: > 2 µM
[11]
  IC50: > 2 µM
[12]
  IC50: > 2 µM
[13]
  IC50: > 2 µM
[14]
  IC50: > 2 µM
[15]
  IC50: > 2 µM
[16]
  IC50: > 2 µM
[17]
  IC50: > 2 µM
[18]
  IC50: > 2 µM
[19]
  IC50: > 2 µM
[20]
  IC50: > 2 µM
[21]
  IC50: > 2 µM
[22]
  IC50: > 2 µM
[23]
  IC50: > 2 µM
[24]
  IC50: > 2 µM
[25]
  IC50: > 2 µM
[26]
  IC50: > 2 µM
[27]
  IC50: > 2 µM
[28]
  IC50: > 2 µM
[29]
  IC50: > 2 µM
[30]
  IC50: > 2 µM
[31]
  IC50: > 2 µM
[32]
  IC50: > 2 µM
[33]
  IC50: > 2 µM
[34]
  IC50: > 2 µM
[35]
  IC50: > 2 µM
[36]
  IC50: > 2 µM
[37]
  IC50: > 2 µM
[38]
  IC50: > 2 µM
[39]
  IC50: > 2 µM
[40]
  IC50: > 2 µM
[41]
  IC50: > 2 µM
[42]
  IC50: > 2 µM
[43]
  IC50: > 2 µM
[44]
  IC50: > 2 µM
[45]
  IC50: > 2 µM
[46]
  IC50: > 2 µM
[47]
  IC50: > 2 µM
[48]
  IC50: > 2 µM
[49]
  IC50: > 2 µM
[50]
  IC50: > 2 µM

## NC(=O)c1ncn([C@@H]2O[C@H](COP(=O)(O)O)[C@@H](O)[C@H]2O)c1N
[1]
  IC50: > 2000 µM
[2]
  IC50: 1260 µM
[3]
  IC50: > 2000 µM
[4]
  IC50: > 2000 µM
[5]
  IC50: 1390 µM
[6]
  IC50: 663 µM
[7]
  IC50: 361 µM
[8]
  IC50: > 2000 µM
[9]
  IC50: 1320 µM
[10]
  IC50: > 2000 µM
[11]
  IC50: 252 µM
[12]
  IC50: > 2000 µM
[13]
  IC50: 89.4 µM
[14]
  IC50: 1350 µM
[15]
  IC50: > 2000 µM
[16]
  IC50: 1440 µM
[17]
  IC50: > 2000 µM
[18]
  IC50: 1300 µM
[19]
  IC50: 905 µM
[20]
  IC50: > 2000 µM
[21]
  IC50: > 2000 µM
[22]
  IC50: > 2000 µM
[23]
  IC50: 1590 µM
[24]
  IC50: > 2000 µM
[25]
  IC50: > 2000 µM
[26]
  IC50: > 2000 µM
[27]
  IC50: 1490 µM
[28]
  IC50: > 2000 µM
[29]
  IC50: 856 µM
[30]
  IC50: > 2000 µM
[31]
  IC50: > 2000 µM
[32]
  IC50: 1580 µM
[33]
  IC50: 746 µM
[34]
  IC50: 1230 µM
[35]
  IC50: 920 µM
[37]
  IC50: > 2000 µM
[38]
  IC50: > 2000 µM
[39]
  IC50: > 2000 µM
[40]
  IC50: > 2000 µM
[41]
  IC50: 1560 µM
[42]
  IC50: > 2000 µM
[43]
  IC50: 838 µM
[44]
  IC50: > 2000 µM
[45]
  IC50: 321 µM
[46]
  IC50: > 2000 µM
[47]
  IC50: > 2000 µM
[48]
  IC50: 1750 µM
[49]
  IC50: 552 µM
[50]
  IC50: > 2000 µM

## COc1cc(Nc2c(C#N)cnc3cc(OCCCN4CCN(C)CC4)c(OC)cc23)c(Cl)cc1Cl [BOSUTINIB]
[1]
  IC50: > 2 µM
[2]
  IC50: 1.56 µM
[3]
  IC50: > 2 µM
[4]
  IC50: > 2 µM
[5]
  IC50: > 2 µM
[6]
  IC50: > 2 µM
[7]
  IC50: 0.352 µM
[8]
  IC50: > 2 µM
[9]
  IC50: > 2 µM
[10]
  IC50: > 2 µM
[11]
  IC50: > 2 µM
[12]
  IC50: > 2 µM
[13]
  IC50: > 2 µM
[14]
  IC50: > 2 µM
[15]
  IC50: > 2 µM
[16]
  IC50: > 2 µM
[17]
  IC50: > 2 µM
[18]
  IC50: > 2 µM
[19]
  IC50: > 2 µM
[20]
  IC50: > 2 µM
[21]
  IC50: > 2 µM
[22]
  IC50: > 2 µM
[23]
  IC50: > 2 µM
[24]
  IC50: > 2 µM
[25]
  IC50: 0.441 µM
[26]
  IC50: > 2 µM
[27]
  IC50: > 2 µM
[28]
  IC50: > 2 µM
[29]
  IC50: > 2 µM
[30]
  IC50: > 2 µM
[31]
  IC50: > 2 µM
[32]
  IC50: > 2 µM
[33]
  IC50: > 2 µM
[34]
  IC50: > 2 µM
[35]
  IC50: > 2 µM
[36]
  IC50: > 2 µM
[37]
  IC50: > 2 µM
[38]
  IC50: > 2 µM
[39]
  IC50: > 2 µM
[40]
  IC50: > 2 µM
[41]
  IC50: 1.45 µM
[42]
  IC50: > 2 µM
[43]
  IC50: > 2 µM
[44]
  IC50: > 2 µM
[45]
  IC50: > 2 µM
[46]
  IC50: > 2 µM
[47]
  IC50: > 2 µM
[48]
  IC50: > 2 µM
[49]
  IC50: > 2 µM
[50]
  IC50: > 2 µM
